A short description of series [1]: Drug levels in the retina after intravitreal injection, LC/MS/MS. In kind it is in vivo, Dutch-Belted rabbits. The following applies: 225, 271, and 315 days after a single injection. The protocol:
The rabbits were then sacrificed at various time points, and the various ocular tissues were separated. The drug levels in the retina were measured by Liquid chromatography-mass spectrometry (LC/MS/MS). The drug levels were plotted as ng/g. The Kd for binding of AXT107 to its integrin targets is 1-2 nM.

A short description of series [2]: Gel formation and persistence in the vitreous after intravitreal injection.
Procedure: In FIG. 3, AXT107 was injected into the vitreous of Dutch-Belted rabbits. […] The retina with the optic nerve is visible in the back of the eye.
In FIG. 7, AXT107 was injected into the vitreous of Dutch-Belted rabbits in a PK toxicology study.

No end group written: not given here.

For the sequence LRRFSTAPFAFIDINDVINF [AXT107], the “AXT107 level in the retina” value in series [1] is reported as “significant levels”. Moreover, in series [2] (Dutch-Belted rabbits, 6 Months after administration, all doses), the “gels in the vitreous at necropsy, PK toxicology study” value was “visible in the vitreous at all doses”. The “effect of gel on the visual axis” value in series [2] (rabbit eye, after intravitreal injection) was “does not block the visual axis”. Moreover, in series [2] (rabbit eye, doses of 100 μg, 250 μg, 500 μg, and 1000 μg), the “time the gel stays in place without breaking apart or migrating” value is reported as 15 months. For the same sequence, the “release of peptide from gel” value in series [2] (rabbit vitreous) was “released the peptide in a sustained manner”.

The values are drawn from patent US12540171B2, “Compositions and methods for treating ocular disease” (Asclepix Therapeutics, Inc., priority 2019, dated 2026).
